According to patent publication US20260001928A1 (CORTERIA PHARMACEUTICALS, priority 2022, published 2026):
*1 amine or outer side, *2 acyl side, *3 side chain or, on linkers, in order; H or OH if unused. Where a SMILES comes first, the peptide text is derived from it. Side-chain parts run from the residue outwards. [ ]: non-standard residue; d: D form. The star is where a group is joined. C16 diacid = O=C(O)CCCCCCCCCCCCCCC(=O)*; γGlu = O=C(O)[C@H](CCC(=O)[*:2])N[*:1]; NMeI = CC[C@H](C)[C@H](NC)C(=O)O; Dap = NC[C@H](N)C(=O)O; Pentanoyl = CCCCC(=O)*; Aib = CC(C)(N)C(=O)O; Propionyl = CCC(=O)*

How the values were obtained:
human CRF2a receptor = target: T1, human CRF2a receptor (Homo sapiens, UniProt Q13324); test: Activity at human CRF2a receptor, cAMP functional assay in TeloHEAC cells; assay type: cell-based; settings: TeloHEAC cells stably expressing human CRF2a receptor, relative to urocortin 2 (100 nM = 100%)
T1 construct: expressed in transfected cells; host or cells: TeloHEAC cells
T1 sequence (Q13324 1-411): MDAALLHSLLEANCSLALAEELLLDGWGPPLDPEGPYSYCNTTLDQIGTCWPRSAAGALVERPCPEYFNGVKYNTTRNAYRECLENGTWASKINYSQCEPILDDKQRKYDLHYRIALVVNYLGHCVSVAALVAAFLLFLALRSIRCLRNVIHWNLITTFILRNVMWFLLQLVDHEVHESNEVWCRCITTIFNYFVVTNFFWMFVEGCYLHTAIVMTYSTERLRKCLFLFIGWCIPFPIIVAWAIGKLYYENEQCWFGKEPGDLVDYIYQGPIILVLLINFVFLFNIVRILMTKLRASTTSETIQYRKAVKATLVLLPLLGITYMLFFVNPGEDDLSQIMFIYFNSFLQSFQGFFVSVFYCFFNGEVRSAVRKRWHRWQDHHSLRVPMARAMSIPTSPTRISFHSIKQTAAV
Procedure, shortened: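 TeloHEAC cells stably expressing human CRF2a (10000 cells/well) were treated with 16-point 1:2 compound dilutions in HBSS/20 mM HEPES with IBMX for 30 min at 37° C. cAMP was read by HTRF (665/620 nm ratio). EC50 was the concentration giving 50% activation, with 100 nM urocortin 2 set as 100%.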

CFR1R receptor = target: T2, CFR1R receptor (Homo sapiens, UniProt P34998); test: Activity at anti-target CFR1R receptor, cAMP assay in CRF1R-overexpression CHO-K1 cells; assay type: cell-based; settings: 100% = Sauvagine at 100 nM; for EC50: cAMP
T2 construct: host or cells: CHO-K1 (clone 2)
T2 sequence (P34998 24-415): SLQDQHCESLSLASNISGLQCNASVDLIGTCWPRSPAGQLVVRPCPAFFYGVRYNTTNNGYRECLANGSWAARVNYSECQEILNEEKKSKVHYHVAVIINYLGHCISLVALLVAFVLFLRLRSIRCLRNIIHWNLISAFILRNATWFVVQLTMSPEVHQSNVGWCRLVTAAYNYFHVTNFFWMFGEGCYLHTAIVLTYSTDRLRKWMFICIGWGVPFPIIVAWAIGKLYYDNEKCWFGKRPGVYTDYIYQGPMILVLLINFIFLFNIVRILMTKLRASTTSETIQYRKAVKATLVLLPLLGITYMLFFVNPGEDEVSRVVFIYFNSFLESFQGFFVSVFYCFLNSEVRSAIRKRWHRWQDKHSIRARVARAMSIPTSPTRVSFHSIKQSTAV
Procedure, shortened: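 Signal is normalised to 100 nM Sauvagine, taken as 100% activation, in clone 2 cells plated at a final 4000 cells/well from frozen stocks.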

Row | Structure (SMILES) | EC50 (human CRF2a receptor) [nM] | Emax (% I) (CFR1R receptor) | EC50 (CFR1R receptor) [nM]
1 | CCCCC(=O)N[C@H](C(=O)N[C@@H](CC(C)C)C(=O)N[C@@H](CO)C(=O)N[C@@H](CC(C)C)C(=O)N[C@@H](CC(=O)O)C(=O)N[C@@H](C(=O)N1CCC[C@H]1C(=O)N[C@H](C(=O)N[C@@H](CCCCN)C(=O)N[C@@H](CC(C)C)C(=O)N[C@@H](CCCCNC(=O)CC[C@H](NC(=O)CCCCCCCCCCCCCCC(=O)O)C(=O)O)C(=O)N[C@@H](CCCCN)C(=O)N[C@H](C(=O)N[C@@H](CC(C)C)C(=O)N[C@@H](CC(C)C)C(=O)N[C@@H](CCC(=O)O)C(=O)N[C@@H](CCC(N)=O)C(=O)N[C@@H](CCC(=O)O)C(=O)N[C@@H](CCCCN)C(=O)N[C@@H](CCC(N)=O)C(=O)N[C@@H](CCCCN)C(=O)N[C@@H](CCCCN)C(=O)N[C@@H](CCC(N)=O)C(=O)N[C@@H](CCCNC(=N)N)C(=O)N[C@@H](CCC(=O)O)C(=O)N[C@@H](CCC(N)=O)C(=O)N[C@@H](C)C(=O)N[C@@H](CCC(=O)O)C(=O)N[C@H](C(=O)N[C@@H](CC(N)=O)C(=O)N[C@H](C(=O)N[C@@H](CCC(N)=O)C(=O)N[C@H](C(=O)N[C@@H](CC(C)C)C(=O)N[C@@H](C)C(=O)N[C@@H](CCC(N)=O)C(=O)N[C@H](C(N)=O)C(C)C)[C@@H](C)CC)C(C)C)[C@@H](C)O)[C@@H](C)CC)[C@@H](C)CC)C(C)C)C(C)C [compound 81] (Pentanoyl-VLSLD[dV]PIKLK([γGlu-C16 diacid])KILLEQEKQKKQREQAETNVQILAQV-NH2) | 0.8 | 6 | > 250
2 | CCC(=O)N[C@H](C(=O)N[C@@H](CC(C)C)C(=O)N[C@@H](CO)C(=O)N[C@@H](CC(C)C)C(=O)N[C@@H](CC(=O)O)C(=O)N[C@@H](C(=O)N1CCC[C@H]1C(=O)N[C@H](C(=O)N[C@@H](CCCCN)C(=O)N[C@@H](CC(C)C)C(=O)N[C@@H](CCCCNC(=O)CC[C@H](NC(=O)CCCCCCCCCCCCCCC(=O)O)C(=O)O)C(=O)N[C@@H](CCCCN)C(=O)N[C@H](C(=O)N[C@@H](CC(C)C)C(=O)N[C@@H](CC(C)C)C(=O)N[C@@H](CCC(=O)O)C(=O)N[C@@H](CCC(N)=O)C(=O)N[C@@H](CCC(=O)O)C(=O)N[C@@H](CCCCN)C(=O)N[C@@H](CCC(N)=O)C(=O)N[C@@H](CCCCN)C(=O)N[C@@H](CCCCN)C(=O)N[C@@H](CCC(N)=O)C(=O)N[C@@H](CCCNC(=N)N)C(=O)N[C@@H](CCC(=O)O)C(=O)N[C@@H](CCC(N)=O)C(=O)N[C@@H](C)C(=O)N[C@@H](CCC(=O)O)C(=O)N[C@H](C(=O)N[C@@H](CC(N)=O)C(=O)N[C@@H](CCCCN)C(=O)N[C@@H](CCC(N)=O)C(=O)N[C@H](C(=O)N[C@@H](CC(C)C)C(=O)N[C@@H](C)C(=O)N[C@@H](CCC(N)=O)C(=O)N[C@H](C(N)=O)C(C)C)[C@@H](C)CC)[C@@H](C)O)[C@@H](C)CC)[C@@H](C)CC)C(C)C)C(C)C [compound 35] (Propionyl-VLSLD[dV]PIKLK([γGlu-C16 diacid])KILLEQEKQKKQREQAETNKQILAQV-NH2) | 0.23 | 13 | > 250
3 | CC[C@H](C)[C@H](NC)C(=O)N[C@H](C(=O)N[C@@H](CC(C)C)C(=O)N[C@@H](CO)C(=O)N[C@@H](CC(C)C)C(=O)N[C@@H](CC(=O)O)C(=O)N[C@@H](C(=O)N1CCC[C@H]1C(=O)N[C@H](C(=O)N[C@@H](CCCCN)C(=O)N[C@@H](CC(C)C)C(=O)N[C@@H](CCCCNC(=O)CC[C@H](NC(=O)CCCCCCCCCCCCCCC(=O)O)C(=O)O)C(=O)N[C@@H](CCCCN)C(=O)N[C@H](C(=O)N[C@@H](CC(C)C)C(=O)N[C@@H](CC(C)C)C(=O)N[C@@H](CCC(=O)O)C(=O)N[C@@H](CCC(N)=O)C(=O)N[C@@H](CCC(=O)O)C(=O)N[C@@H](CCCCN)C(=O)N[C@@H](CCC(N)=O)C(=O)N[C@@H](CCCCN)C(=O)N[C@@H](CCCCN)C(=O)N[C@@H](CCC(N)=O)C(=O)N[C@@H](CCCNC(=N)N)C(=O)N[C@@H](CCC(=O)O)C(=O)N[C@@H](CCC(N)=O)C(=O)N[C@@H](C)C(=O)N[C@@H](CCC(=O)O)C(=O)N[C@H](C(=O)N[C@@H](CC(N)=O)C(=O)N[C@@H](CN)C(=O)N[C@@H](CCC(N)=O)C(=O)N[C@H](C(=O)N[C@@H](CC(C)C)C(=O)N[C@@H](C)C(=O)N[C@@H](CCC(N)=O)C(=O)N[C@H](C(N)=O)C(C)C)[C@@H](C)CC)[C@@H](C)O)[C@@H](C)CC)[C@@H](C)CC)C(C)C)C(C)C [compound 70] (H-[NMeI]VLSLD[dV]PIKLK([γGlu-C16 diacid])KILLEQEKQKKQREQAETN[Dap]QILAQV-NH2) | 0.17 | 0 | > 250
4 | CCC(=O)N[C@H](C(=O)N[C@@H](CC(C)C)C(=O)N[C@@H](CO)C(=O)N[C@@H](CC(C)C)C(=O)N[C@@H](CC(=O)O)C(=O)N[C@@H](C(=O)N1CCC[C@H]1C(=O)N[C@H](C(=O)N[C@@H](CCCCN)C(=O)N[C@@H](CC(C)C)C(=O)N[C@@H](CCCCNC(=O)CC[C@H](NC(=O)CCCCCCCCCCCCCCC(=O)O)C(=O)O)C(=O)N[C@@H](CCC(N)=O)C(=O)N[C@H](C(=O)N[C@@H](CC(C)C)C(=O)N[C@@H](CC(C)C)C(=O)N[C@@H](CCCCN)C(=O)N[C@@H](CCC(N)=O)C(=O)N[C@@H](CCC(=O)O)C(=O)N[C@@H](CCCNC(=N)N)C(=O)N[C@@H](CCC(N)=O)C(=O)N[C@@H](CCCCN)C(=O)N[C@@H](CCCCN)C(=O)N[C@@H](CCC(N)=O)C(=O)N[C@@H](CCCNC(=N)N)C(=O)N[C@@H](CCC(=O)O)C(=O)N[C@@H](CCC(N)=O)C(=O)N[C@@H](C)C(=O)N[C@@H](CCC(=O)O)C(=O)N[C@@H](CCCCN)C(=O)N[C@@H](CC(N)=O)C(=O)N[C@@H](CCCCN)C(=O)N[C@@H](CCC(N)=O)C(=O)N[C@H](C(=O)N[C@@H](CC(C)C)C(=O)N[C@@H](CCC(=O)O)C(=O)N[C@@H](CCC(N)=O)C(=O)N[C@H](C(N)=O)C(C)C)[C@@H](C)CC)[C@@H](C)CC)[C@@H](C)CC)C(C)C)C(C)C [compound 6] (Propionyl-VLSLD[dV]PIKLK([γGlu-C16 diacid])QILLKQERQKKQREQAEKNKQILEQV-NH2) | 0.09 | 56 | 
5 | CC[C@H](C)[C@H](NC(C)=O)C(=O)N[C@H](C(=O)N[C@@H](CC(C)C)C(=O)N[C@@H](CO)C(=O)N[C@@H](CC(C)C)C(=O)N[C@@H](CC(=O)O)C(=O)N[C@@H](C(=O)N1CCC[C@H]1C(=O)N[C@H](C(=O)N[C@@H](CCCCN)C(=O)N[C@@H](CC(C)C)C(=O)N[C@@H](CCCCNC(=O)CC[C@H](NC(=O)CCCCCCCCCCCCCCC(=O)O)C(=O)O)C(=O)N[C@@H](CCCCN)C(=O)N[C@H](C(=O)N[C@@H](CC(C)C)C(=O)N[C@@H](CC(C)C)C(=O)N[C@@H](CCCCN)C(=O)N[C@@H](CCC(N)=O)C(=O)N[C@@H](CCC(=O)O)C(=O)N[C@@H](CCCNC(=N)N)C(=O)N[C@@H](CCC(N)=O)C(=O)N[C@@H](CCCCN)C(=O)N[C@@H](CCCCN)C(=O)N[C@@H](CCC(N)=O)C(=O)N[C@@H](CCCNC(=N)N)C(=O)N[C@@H](CCC(=O)O)C(=O)N[C@@H](CCC(N)=O)C(=O)N[C@@H](C)C(=O)N[C@@H](CCC(=O)O)C(=O)N[C@@H](CCCCN)C(=O)N[C@@H](CC(N)=O)C(=O)NC(C)(C)C(=O)N[C@@H](CCC(N)=O)C(=O)N[C@H](C(=O)N[C@@H](CC(C)C)C(=O)N[C@@H](CCC(=O)O)C(=O)N[C@@H](CCC(N)=O)C(=O)N[C@H](C(N)=O)C(C)C)[C@@H](C)CC)[C@@H](C)CC)[C@@H](C)CC)C(C)C)C(C)C [compound 21] (Ac-IVLSLD[dV]PIKLK([γGlu-C16 diacid])KILLKQERQKKQREQAEKN[Aib]QILEQV-NH2) | 0.34 | 5 | > 250
